From patent US8273769B2, “Phenoxy acetic acid derivatives” (Merck Serono SA, priority 2009, dated 2012) come the findings set out here.

The target in the test is T1, CRTH2 (Homo sapiens, UniProt Q9Y5Y4).
T1 sequence (Q9Y5Y4 1-395): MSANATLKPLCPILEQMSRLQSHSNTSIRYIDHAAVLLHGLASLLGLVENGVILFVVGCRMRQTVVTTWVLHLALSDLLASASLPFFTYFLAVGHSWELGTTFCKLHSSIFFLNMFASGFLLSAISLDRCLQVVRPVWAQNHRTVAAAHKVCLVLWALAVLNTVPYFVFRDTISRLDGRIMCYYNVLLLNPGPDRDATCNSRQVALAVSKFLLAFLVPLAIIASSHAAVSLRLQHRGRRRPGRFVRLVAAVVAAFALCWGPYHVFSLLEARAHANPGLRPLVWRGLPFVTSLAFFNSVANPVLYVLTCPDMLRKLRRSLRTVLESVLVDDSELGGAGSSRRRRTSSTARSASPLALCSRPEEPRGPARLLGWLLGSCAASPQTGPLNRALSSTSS
The test is described as follows: Radioligand binding Scintillation Proximity Assay ([3H]PGD2, hCRTH2-CHO cell membranes). On the set-up: host or cells: CHO cells. The following applies: 1.5 nM [3H]PGD2, hCRTH2-CHO cell membranes, SPA. The method, then: Adherent CHO cells expressing hCRTH2 (Euroscreen, Belgium) were cultured in 225 cm^2 cell culture flasks (Corning, USA) in 30 ml of medium. After two rinses of phosphate buffered saline (PBS), cells were harvested in 10 ml of PBS containing 1 mM EDTA, centrifuged at 500×g for 5 min at 4° C. and frozen at −80° C. The pellet was re-suspended in 50 mM Tris-HCl, pH 7.4, 2 mM EDTA, 250 mM Sucrose, containing protease inhibitor cocktail tablets, (Complete EDTA-free, Roche, Germany) and incubated 30 min at 4° C. Cells were disrupted by nitrogen cavitation (Parr Instruments, USA) at 4° C. (800 p.s.i. for 30 min), and centrifuged at 500×g for 10 min at 4° C. Pellet containing nuclei and cellular debris was discarded and supernatant was centrifuged 60 min at 4° C. at 45000×g. Membrane pellet was re-suspended in storage buffer (10 mM HEPES/KOH pH 7.4, 1 mM EDTA, 250 mM sucrose, protease inhibitor cocktail tablets) using Dounce homogenization and frozen in liquid nitrogen, and stored at −80° C.
The inhibitory activity can be investigated by a radioligand binding Scintillation Proximity Assay (SPA) (Sawyer et al., Br. J. Pharmocol 2002, 137, 1163-72). The SPA radioligand binding assay was performed at room temperature in binding buffer (10 mM HEPES/KOH pH 7.4, 10 mM MnCl2, with protease inhibitor cocktail tablets), containing 1.5 nM [^3H]PGD2 (Perkin Elmer), 10-50 μg/ml of hCRTH2-CHO cell membrane protein and 2 mg/ml of Wheat-germ agglutinin Sintillation Proximity Assay beads (RPNQ0001, GE-Healthcare) in a final volume of 100 μl in 96 well plates (Corning, USA). Non-specific binding was determined in the presence of 10 μM PGD2 (Cayman, USA). Competing Compounds of Formula (I) were diluted in dimethylsulphoxide so that the total volume of dimethylsulfoxide was kept constant at 1% dimethylsulphoxide (Me2SO). Serial dilutions of 100 μM to 100 pM were prepared and 10 μl each of the compounds of Formula (I) stock solutions were added to the binding assay reagents and incubated for 90 min with agitation at room temperature. Binding activity was determined by using a 1450 Micro-beta scintillation counter (Wallac, UK).
In general terms: In a scintillation proximity assay essentially only radioactivity close to the scintillant gives light.
The molecule `O=C(O)COc1ccccc1C#Cc1ccccc1Cl` [Example 45, {2-[(2-chlorophenyl)ethynyl]phenoxy}acetic acid] showed an IC50 of 958 nM. Next, `CC(C)S(=O)(=O)c1cc(C#Cc2cc(Cl)ccc2OCC(=O)O)ccc1C(=O)N(C)C` [Example 164, (4-chloro-2-{[4-[(dimethylamino)carbonyl]-3-(isopropylsulfonyl)phenyl]ethynyl}phenoxy)acetic acid]: 75 nM; `Cc1ccc(S(=O)(=O)Cc2ccccc2)cc1C#Cc1cc(C#N)ccc1OCC(=O)O` [Example 93, (2-{[5-(benzylsulfonyl)-2-methylphenyl]ethynyl}-4-cyanophenoxy)acetic acid]: 13 nM; `CCCS(=O)(=O)c1cccc(C#Cc2cc(-c3sc(C)nc3C)ccc2OCC(=O)O)c1` [Example 132, (4-(2,4-dimethyl-1,3-thiazol-5-yl)-2-{[3-(propylsulfonyl)phenyl]ethynyl}phenoxy)acetic acid]: 68 nM. For `N#Cc1ccc(OCC(=O)O)c(C#Cc2cncc(S(=O)(=O)N3CC(F)(F)C3)c2)c1` [Example 76, [4-cyano-2-({5-[(3,3-difluoroazetidin-1-yl)sulfonyl]pyridin-3-yl}ethynyl)phenoxy]acetic acid] the value was 171 nM. As to `CCCS(=O)(=O)c1cccc(C#Cc2cc(-c3cccs3)ccc2OCC(=O)O)c1` [Example 134, [2-{[3-(propylsulfonyl)phenyl]ethynyl}-4-(2-thienyl)phenoxy]acetic acid], the IC50 is 15 nM.

In the case of `CC(C)S(=O)(=O)c1cc(C#Cc2cc(Cl)ccc2OCC(=O)O)ccc1C(=O)N1CCOCC1` [Example 167, (4-chloro-2-{[3-(isopropylsulfonyl)-4-(morpholin-4-ylcarbonyl)phenyl]ethynyl}phenoxy)acetic acid], the IC50 was 100 nM.

For the molecule `CCCS(=O)(=O)c1cc(C#Cc2cc(Cl)ccc2OCC(=O)O)c(C)cc1NC(C)=O` [Example 153, (2-{[4-(acetylamino)-2-methyl-5-(propylsulfonyl)phenyl]ethynyl}-4-chlorophenoxy)acetic acid], the IC50 came to 1 nM. This IC50 lies about 100-fold lower than the previous one. Next, `CC1(C)C(=O)c2ccc(C#Cc3cc(Cl)ccc3OCC(=O)O)cc2S1(=O)=O` [Example 158, {4-chloro-2-[(2,2-dimethyl-1,1-dioxido-3-oxo-2,3-dihydro-1-benzothien-6-yl)ethynyl]phenoxy}acetic acid]: 34 nM; `Cc1ccc(S(=O)(=O)NC(C)(C)C)cc1C#Cc1cc(Cl)ccc1OCC(=O)O` [Example 85, [2-({5-[(tert-butylamino)sulfonyl]-2-methylphenyl}ethynyl)-4-chlorophenoxy]acetic acid]: 7 nM. For `CCCN(CC)C(=O)c1ccc(C#Cc2cc(Cl)ccc2OCC(=O)O)cc1S(=O)(=O)C(C)C` [Example 166, (4-chloro-2-{[4-{[ethyl(propyl)amino]carbonyl}-3-(isopropylsulfonyl)phenyl]ethynyl}phenoxy)acetic acid] the value was 43 nM; for `CS(=O)(=O)c1cc(C#Cc2cc(Cl)ccc2OCC(=O)O)ccc1-c1ccc(C(F)(F)F)cc1` [Example 143, (4-chloro-2-{[2-(methylsulfonyl)-4′-(trifluoromethyl)biphenyl-4-yl]ethynyl}phenoxy)acetic acid], 50 nM; for `Cc1ccc(S(=O)(=O)N(C)CCCN(C)C)cc1C#Cc1cc(Cl)ccc1OCC(=O)O` [Example 119, {4-chloro-2-[(5-{[[3-(dimethylamino)propyl](methyl)amino]sulfonyl}-2-methylphenyl)ethynyl]phenoxy}acetic acid], 369 nM. Next, `COc1ccccc1C#Cc1cc(Cl)ccc1OCC(=O)O` [Example 6, {4-chloro-2-[(2-methoxyphenyl)ethynyl]phenoxy}acetic acid]: 229 nM; `CCCCN(C)C(=O)c1ccc(C#Cc2cc(Cl)ccc2OCC(=O)O)cc1S(=O)(=O)C(C)C` [Example 163, (2-{[4-{[butyl(methyl)amino]carbonyl}-3-(isopropylsulfonyl)phenyl]ethynyl}-4-chlorophenoxy)acetic acid]: 32 nM; `CCCNS(=O)(=O)c1ccc(C)c(C#Cc2cc(Cl)ccc2OCC(=O)O)c1` [Example 118, [4-chloro-2-({2-methyl-5-[(propylamino)sulfonyl]phenyl}ethynyl)phenoxy]acetic acid]: 4 nM.

`CS(=O)(=O)c1ccc(N2CCCCC2)c(C#Cc2cc(C#N)ccc2OCC(=O)O)c1` [Example 62, (4-cyano-2-{[5-(methylsulfonyl)-2-piperidin-1-ylphenyl]ethynyl}phenoxy)acetic acid] gave an IC50 of 202 nM.

Turning to `Cc1ccc(S(=O)(=O)CCO)cc1C#Cc1cc(Cl)ccc1OCC(=O)O` [Example 52, [4-chloro-2-({5-[(2-hydroxyethyl)sulfonyl]-2-methylphenyl}ethynyl)phenoxy]acetic acid], the IC50 is 25 nM. Next, `O=C(O)COc1ccc(Cl)cc1C#Cc1ccc(F)cc1F` [Example 8, {4-chloro-2-[(2,4-difluorophenyl)ethynyl]phenoxy}acetic acid]: 123 nM. Consider `CS(=O)(=O)Nc1cncc(C#Cc2cc(Cl)ccc2OCC(=O)O)c1` [Example 39, [4-chloro-2-({5-[(methylsulfonyl)amino]pyridin-3-yl}ethynyl)phenoxy]acetic acid], for which the IC50 turned out to be 23 nM. Against the preceding molecule, the IC50 is about 5.3-fold lower. Next, `CCS(=O)(=O)c1ccc(C)c(C#Cc2cc(Cl)ccc2OCC(=O)O)c1` [Example 50, (4-chloro-2-{[5-(ethylsulfonyl)-2-methylphenyl]ethynyl}phenoxy)acetic acid]: 11 nM. As for `Cc1ncc(S(=O)(=O)N(C)C)cc1C#Cc1cc(Cl)ccc1OCC(=O)O` [Example 139, [4-chloro-2-({5-[(dimethylamino)sulfonyl]-2-methylpyridin-3-yl}ethynyl)phenoxy]acetic acid], the IC50 stood at 51 nM. This IC50 is about 4.6-fold higher than that of the molecule before. For `CCNS(=O)(=O)c1ccc(C)c(C#Cc2cc(Cl)ccc2OCC(=O)O)c1` [Example 16, [4-chloro-2-({5-[(ethylamino)sulfonyl]-2-methylphenyl}ethynyl)phenoxy]acetic acid] the value was 6 nM; for `COCc1ccc(C#Cc2cc(Cl)ccc2OCC(=O)O)c(F)c1` [Example 34, (4-chloro-2-{[2-fluoro-4-(methoxymethyl)phenyl]ethynyl}phenoxy)acetic acid], 26 nM; for `CS(=O)(=O)c1ccc(C#Cc2cc(Cl)ccc2OCC(=O)O)cc1` [Example 90, (4-chloro-2-{[4-(methylsulfonyl)phenyl]ethynyl}phenoxy)acetic acid], 154 nM. Next, `CCN(CC)S(=O)(=O)c1ccc(C)c(C#Cc2cc(Cl)ccc2OCC(=O)O)c1` [Example 81, [4-chloro-2-({5-[(diethylamino)sulfonyl]-2-methylphenyl}ethynyl)phenoxy]acetic acid]: 5 nM; `CS(=O)(=O)c1cc(C#Cc2cc(Cl)ccc2OCC(=O)O)ccc1-c1ccc(Cl)cc1` [Example 144, (4-chloro-2-{[4′-chloro-2-(methylsulfonyl)biphenyl-4-yl]ethynyl}phenoxy)acetic acid]: 17 nM. With `O=C(O)COc1ccc(Cl)cc1C#Cc1ccccc1C(F)(F)F` [Example 9, (4-chloro-2-{[2-(trifluoromethyl)phenyl]ethynyl}phenoxy)acetic acid], the IC50 was determined as 30 nM. Next, `Cc1cc[n+]([O-])cc1C#Cc1cc(Cl)ccc1OCC(=O)O` [Example 31, {4-chloro-2-[(4-methyl-1-oxidopyridin-3-yl)ethynyl]phenoxy}acetic acid]: 19 nM. For `O=C(O)COc1ccc(Cl)cc1C#Cc1ccc2c(c1)S(=O)(=O)C=C2` [Example 156, {4-chloro-2-[(1,1-dioxido-1-benzothien-6-yl)ethynyl]phenoxy}acetic acid] the value was 32 nM. In turn, `COc1cccc(-c2ccc(C#Cc3cc(Cl)ccc3OCC(=O)O)cc2S(C)(=O)=O)c1` [Example 142] yielded a half-inhibitory concentration (IC50) of 9 nM.

By IC50 is commonly meant the point on the concentration scale where inhibition reaches its midpoint.
